The values below come from ChEMBL document CHEMBL1649066, “An imidazopiperidine series of CCR5 antagonists for the treatment of HIV: the discovery of N-{(1S)-1-(3-fluorophenyl)-3-[(3-endo)-3-(5-isobutyryl-2-methyl-4,5,6,7-tetrahydro-1H-imidazo[4,5-c]pyridin-1-yl)-8-azabicyclo[3.2.1]oct-8-yl]propyl}acetamide (PF-232798)” (J Med Chem, 2011).

Data set [1] can be described thus: Oral bioavailability in dog at 0.5 mg/kg. To be noted: in vivo. The format is ADME, organism-based, Canis lupus familiaris.
The subject of data set [2] is Human immunodeficiency virus 1. The data set can be described thus: Antiviral activity against maraviroc-resistant HIV1 isolate CC185 at 100 times IC90 concentration. It is filed as functional, organism-based.
A short description of data set [3]: Half life in dog at 0.5 mg/kg, iv and 0.5 mg/kg, po. The format is ADME, organism-based, Canis lupus familiaris. To be noted: in vivo.
Data set [4] deals with Canis familiaris. The data set can be described thus: fCmax in dog at 0.5 mg/kg, po. It is filed as ADME, organism-based, Canis lupus familiaris. To be noted: in vivo. The arrangement: dose 0.5 mg/kg, route oral.
For data set [5], the target named is Voltage-gated inwardly rectifying potassium channel KCNH2 (Homo sapiens, UniProt Q12809).
Description: Displacement of [3H]-dofetilide from human ERG expressed in HEK293 cells
The subject of data set [6] is Human immunodeficiency virus 1. The data set can be described thus: Antiviral activity against maraviroc-resistant HIV1 isolate CC185 at 10 times IC90 concentration. It is filed as functional, organism-based.
The nature of data set [7]: Plasma protein binding in rat at 2 mg/kg, iv and 2 mg/kg, po. It is filed as ADME, organism-based. To be noted: read-out: PPB (converted).
The subject of data set [8] is Rattus norvegicus. The data set can be described thus: fCmax in rat at 2 mg/kg, po. It is filed as ADME, organism-based. Also on record: dose 2 mg/kg, route oral. The conditions noted are these: in vivo.
A short description of data set [9]: Intrinsic clearance in human liver microsomes assessed per mg of protein. It is filed as ADME, Microsome. Background: Liver microsomes are a subcellular fraction often used to study metabolism.
Data set [10] in a line: Tmax in dog at 0.5 mg/kg, po. It is filed as ADME, organism-based, Canis lupus familiaris. The arrangement: dose 0.5 mg/kg, route oral. To be noted: in vivo.
Data set [11] can be described thus: Apparent permeability from basolateral to apical side of human Caco2 cells. To be noted: Caco-2.
Data set [12] is described as follows: Plasma protein binding in dog at 0.5 mg/kg, iv and 0.5 mg/kg, po. The conditions noted are these: read-out: PPB (converted). It is filed as ADME, organism-based, Canis lupus familiaris.
The test system of data set [13] is Canis familiaris. The data set can be described thus: Unbound clearance in dog at 0.5 mg/kg, iv and 0.5 mg/kg, po. To be noted: in vivo. It is filed as ADME, organism-based, Canis lupus familiaris.
Data set [14] in a line: Octanol-buffer partition coefficient, log D of the compound.
Data set [15] is described as follows: Apparent permeability from apical to basolateral side of human Caco2 cells. To be noted: Caco-2. Background: Caco-2 monolayers are a common model of the intestinal barrier.
For data set [16], the system named is Human immunodeficiency virus. Description: Antiviral activity against HIV Ba-L infected in PBMC. To be noted: Human immunodeficiency virus 1, Ba-L. The format is functional.
Data set [17] has as its system Rattus norvegicus. Description: Unbound clearance in rat at 2 mg/kg, iv and 2 mg/kg, po. It is filed as ADME, organism-based. To be noted: in vivo.
The nature of data set [18]: Intrinsic clearance in rat liver microsomes assessed per mg of protein. It is filed as ADME, Microsome.
The nature of data set [19]: Tmax in rat at 2 mg/kg, po. The arrangement: dose 2 mg/kg, route oral. The format is ADME, organism-based. To be noted: in vivo.
Data set [20] in a line: Oral bioavailability in rat at 2 mg/kg. The format is ADME, organism-based. The conditions noted are these: in vivo.
Data set [21] is described as follows: Volume of distribution in dog at 0.5 mg/kg, iv and 0.5 mg/kg, po. It is filed as ADME, organism-based, Canis lupus familiaris. To be noted: in vivo.
Data set [22] deals with Human immunodeficiency virus 1. The data set can be described thus: Antiviral activity against maraviroc-resistant HIV1 isolate CC185 at IC90 concentration. The format is functional, organism-based.
The nature of data set [23]: Intrinsic clearance in dog liver microsomes assessed per mg of protein. The format is ADME, Canis lupus familiaris, Microsome.
Data set [24] can be described thus: Clearance in dog at 0.5 mg/kg, iv and 0.5 mg/kg, po. The format is ADME, organism-based, Canis lupus familiaris. To be noted: in vivo.
Data set [25] is described as follows: Half life in rat at 2 mg/kg, iv and 2 mg/kg, po. It is filed as ADME, organism-based. To be noted: in vivo.
Data set [26] in a line: Clearance in rat at 2 mg/kg, iv and 2 mg/kg, po. To be noted: in vivo. The format is ADME, organism-based.
A short description of data set [27]: Half life in rat at 1 mg/kg, iv and 2 mg/kg, po. It is filed as ADME, organism-based. To be noted: in vivo.
Data set [28] is described as follows: Plasma protein binding in rat at 1 mg/kg, iv and 2 mg/kg, po. The format is ADME, organism-based. To be noted: read-out: PPB (converted).
Data set [29] in a line: Clearance in rat at 1 mg/kg, iv and 2 mg/kg, po. It is filed as ADME, organism-based. The conditions noted are these: in vivo.
Data set [30] deals with Rattus norvegicus. The data set can be described thus: Unbound clearance in rat at 1 mg/kg, iv and 2 mg/kg, po. The format is ADME, organism-based. To be noted: in vivo.
Data set [31] has as its system Rattus norvegicus. The data set can be described thus: fCmax in rat at 10 mg/kg, po. The arrangement: dose 10 mg/kg, route oral. The format is ADME, organism-based. To be noted: in vivo.
Data set [32] relates to Rattus norvegicus. The data set can be described thus: Unbound clearance in rat at 1 mg/kg, iv and 10 mg/kg, po. The format is ADME, organism-based. To be noted: in vivo.
The nature of data set [33]: Oral bioavailability in dog at 1 mg/kg. It is filed as ADME, organism-based, Canis lupus familiaris. The conditions noted are these: in vivo.
Data set [34] can be described thus: Plasma protein binding in dog at 0.5 mg/kg, iv and 1 mg/kg, po. The format is ADME, organism-based, Canis lupus familiaris. The conditions noted are these: read-out: PPB (converted).
Data set [35] in a line: Clearance in rat at 1 mg/kg, iv and 10 mg/kg, po. The conditions noted are these: in vivo. It is filed as ADME, organism-based.
Data set [36] concerns Canis familiaris. Description: Unbound clearance in dog at 0.5 mg/kg, iv and 1 mg/kg, po. To be noted: in vivo. The format is ADME, organism-based, Canis lupus familiaris.
Data set [37] can be described thus: Tmax in rat at 10 mg/kg, po. It is filed as ADME, organism-based. The arrangement: dose 10 mg/kg, route oral. The conditions noted are these: in vivo.
Data set [38] can be described thus: Oral bioavailability in rat at 10 mg/kg. It is filed as ADME, organism-based. To be noted: in vivo.
A short description of data set [39]: Half life in dog at 0.5 mg/kg, iv and 1 mg/kg, po. It is filed as ADME, organism-based, Canis lupus familiaris. The conditions noted are these: in vivo.
The nature of data set [40]: Volume of distribution in dog at 0.5 mg/kg, iv and 1 mg/kg, po. To be noted: in vivo. It is filed as ADME, organism-based, Canis lupus familiaris.
Data set [41] is described as follows: Absorption in dog at 0.5 mg/kg, iv and 1 mg/kg, po. It is filed as ADME, organism-based, Canis lupus familiaris. To be noted: in vivo, read-out: Activity.
A short description of data set [42]: Plasma protein binding in rat at 1 mg/kg, iv and 10 mg/kg, po. It is filed as ADME, organism-based. The conditions noted are these: read-out: PPB (converted).
Data set [43] in a line: Absorption in rat at 1 mg/kg, iv and 10 mg/kg, po. To be noted: in vivo, read-out: Activity. It is filed as ADME, organism-based.
A short description of data set [44]: Half life in rat at 1 mg/kg, iv and 10 mg/kg, po. It is filed as ADME, organism-based. To be noted: in vivo.

Molecules are shown by their SMILES. Calls of active or inactive are those of the source. No cut-off for these calls is given here.

Sequence of Voltage-gated inwardly rectifying potassium channel KCNH2 (Q12809 whole entry): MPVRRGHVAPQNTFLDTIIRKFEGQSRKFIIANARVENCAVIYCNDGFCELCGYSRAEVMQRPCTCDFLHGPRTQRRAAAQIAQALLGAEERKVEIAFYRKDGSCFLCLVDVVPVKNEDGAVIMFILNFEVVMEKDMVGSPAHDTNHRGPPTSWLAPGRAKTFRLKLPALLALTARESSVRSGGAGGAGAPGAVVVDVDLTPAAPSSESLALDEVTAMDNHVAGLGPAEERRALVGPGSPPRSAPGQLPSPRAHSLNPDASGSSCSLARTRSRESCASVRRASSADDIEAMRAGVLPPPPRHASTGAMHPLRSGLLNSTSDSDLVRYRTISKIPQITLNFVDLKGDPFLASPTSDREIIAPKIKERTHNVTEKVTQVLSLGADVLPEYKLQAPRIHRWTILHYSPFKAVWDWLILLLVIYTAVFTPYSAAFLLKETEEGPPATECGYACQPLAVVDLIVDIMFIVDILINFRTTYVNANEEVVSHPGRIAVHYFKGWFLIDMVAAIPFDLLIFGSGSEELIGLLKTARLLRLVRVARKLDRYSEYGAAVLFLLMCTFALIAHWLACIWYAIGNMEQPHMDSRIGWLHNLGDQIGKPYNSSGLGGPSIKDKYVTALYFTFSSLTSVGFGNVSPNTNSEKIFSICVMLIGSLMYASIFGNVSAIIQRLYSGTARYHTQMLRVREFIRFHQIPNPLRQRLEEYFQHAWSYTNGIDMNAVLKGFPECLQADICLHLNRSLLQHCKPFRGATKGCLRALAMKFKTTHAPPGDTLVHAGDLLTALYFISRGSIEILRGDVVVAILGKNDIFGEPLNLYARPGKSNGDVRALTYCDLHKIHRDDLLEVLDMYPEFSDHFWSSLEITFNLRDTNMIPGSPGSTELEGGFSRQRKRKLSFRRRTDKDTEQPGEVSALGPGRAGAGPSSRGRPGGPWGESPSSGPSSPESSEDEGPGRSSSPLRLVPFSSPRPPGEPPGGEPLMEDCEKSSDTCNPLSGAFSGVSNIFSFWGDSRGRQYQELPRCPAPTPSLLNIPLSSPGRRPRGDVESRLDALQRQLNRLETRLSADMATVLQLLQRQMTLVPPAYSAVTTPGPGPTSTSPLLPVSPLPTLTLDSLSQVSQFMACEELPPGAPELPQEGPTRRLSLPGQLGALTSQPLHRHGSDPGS

Take `COC(=O)N1CCc2c(nc(C)n2[C@H]2C[C@H]3CC[C@@H](C2)N3CC[C@H](NC(C)=O)c2cccc(F)c2)C1`: the bioavailability – broadly, the share of a dose that reaches the circulation, judged against a reference dose that is usually intravenous – in data set [1] was found to be 50%; in [20], 20%. The outcome in data set [2], in data set [6] and in data set [22] was Active. For the same molecule, the half-life (as a rule, how long it takes for the measured level to halve) in data set [3] was 3.3 h; in data set [25] it was 2.3 h. Moreover, the values for the Cmax_unbound in data set [4] and in data set [8] were 9 nM and 208 nM, respectively. In addition, the concentration for half-maximal inhibition (IC50) (usually the point on the concentration scale where inhibition reaches its midpoint) in data set [5] came out at 2000 nM. The fraction unbound is 0.32 in data set [7] and 0.27 in data set [12]. In addition, the microsomal CLint (commonly a measure of how fast metabolising enzymes remove a compound, apart from limits set by blood flow) in data set [9] was < 8 µL/min/mg; in data set [18], < 6 µL/min/mg; in data set [23], < 9 µL/min/mg. The Tmax (usually the time from dosing to the highest level) in data set [10] came out at 0.5 h; in data set [19], 2 h. For the same molecule, the Papp B→A – broadly, how fast a substance crosses the layer from the basolateral side – in data set [11] was determined as 11 ×10⁻⁶ cm/s. Also, the CL in data set [13] is 150 mL/min/kg; in data set [17], 253 mL/min/kg. Besides, in [14], the logD (in general, lipophilicity at a set pH, counting ionised and neutral species) amounted to 1.9. Further, the apparent permeability from apical to basolateral (Papp A→B) (in general, the apparent permeability from the apical to the basolateral side of a cell layer) in data set [15] turned out to be 3 ×10⁻⁶ cm/s. In addition, the 90% effect concentration (IC90) (as a rule, the concentration at which the effect reaches the 90% level) in [16] is 0.8 nM. In data set [21], this molecule yielded a Vd of 9.9 L/kg. The results for the clearance in [24] and in [26] were 36 mL/min/kg and 91 mL/min/kg, respectively.

With `COC(=O)N1CCc2nc(C)n([C@H]3C[C@H]4CC[C@@H](C3)N4CC[C@H](NC(C)=O)c3cccc(F)c3)c2C1`, the bioavailability in data set [1] came to 42%; in data set [20] it was 8%. Further, the half-life in data set [27] was 1.7 h; in data set [3], 3.8 h. The result in data set [2], in data set [6] and in data set [22] was Active. Moreover, the fraction unbound in [28] was 0.29; in data set [12], 0.38. Besides, the results for the clearance in data set [29] and in data set [24] were 46 mL/min/kg and 36 mL/min/kg, respectively. In addition, the microsomal CLint in data set [9] was found to be 19 µL/min/mg; in [18] it was 15 µL/min/mg; in data set [23], 32 µL/min/mg. In addition, the results for the Tmax in data set [10] and in data set [19] were 0.25 h and 2 h, respectively. Further, the CL in [13] came to 93 mL/min/kg; in data set [30], 518 mL/min/kg. The same molecule returned an IC90 in [16] of 1.6 nM. In data set [21], the Vd was found to be 11.8 L/kg.

Turning to `Cc1nnc(C(C)C)n1[C@@H]1C[C@H]2CC[C@@H](C1)N2CC[C@H](NC(=O)C1CCC(F)(F)CC1)c1ccccc1` [MARAVIROC], the Cmax_unbound is reported as 73 nM in data set [31] and 80 nM in data set [4]. Further, the results for the CL in data set [32] and in data set [36] were 137 mL/min/kg and 53 mL/min/kg, respectively. In addition, the bioavailability in data set [33] was 42%; in data set [38], 6%. In addition, the figures for the fraction unbound in data set [34] and in data set [42] were 0.4 and 0.54, respectively. In data set [35], this molecule registered a clearance of 74 mL/min/kg. For the same molecule, the Tmax in [37] is 2 h; in data set [10], 1.5 h. The microsomal CLint in data set [9] is 49 µL/min/mg; in data set [18] it was < 6 µL/min/mg; in [23], < 9 µL/min/mg. The Papp B→A in data set [11] is 12 ×10⁻⁶ cm/s. The half-life in data set [39] and in data set [44] was 2.3 h each time. In addition, the Vd in data set [40] was found to be 4.3 L/kg. The Papp A→B in data set [15] is < 1 ×10⁻⁶ cm/s. Besides, the Fa in data set [41] was 70%; in data set [43], 20%.
